Laboratory results reported in ChEMBL document CHEMBL1177843, “Metal based biologically active compounds: design, synthesis, and antibacterial/antifungal/cytotoxic properties of triazole-derived Schiff bases and their oxovanadium(IV) complexes” (Eur J Med Chem, 2010).
≈ marks a conversion by molar mass, not a printed value.

Columns and labels:
Artemia salina = experiment: Toxicity in Artemia salina nauplii assessed as mortality after 24 hrs; type: organism-based; conditions: in vivo
Escherichia coli = experiment: Antibacterial activity against Escherichia coli at 1 mg/ml after 24 hrs by agar-well diffusion method; type: functional; conditions: for zone of inhibition at 1000 µg/mL: Escherichia coli, 24 h, read-out: DIZ
Shigella flexneri = experiment: Antibacterial activity against Shigella flexneri at 1 mg/ml after 24 hrs by agar-well diffusion method; type: functional; conditions: for zone of inhibition at 1000 µg/mL: Shigella flexneri, 24 h, read-out: DIZ
Pseudomonas aeruginosa = experiment: Antibacterial activity against Pseudomonas aeruginosa at 1 mg/ml after 24 hrs by agar-well diffusion method; type: functional; conditions: for zone of inhibition at 1000 µg/mL: Pseudomonas aeruginosa, 24 h, read-out: DIZ
Salmonella enterica = experiment: Antibacterial activity against Salmonella typhi at 1 mg/ml after 24 hrs by agar-well diffusion method; type: functional, Salmonella enterica subsp. enterica serovar Typhi; conditions: for zone of inhibition at 1000 µg/mL: Salmonella enterica, 24 h, read-out: DIZ
Staphylococcus aureus = experiment: Antibacterial activity against Staphylococcus aureus at 1 mg/ml after 24 hrs by agar-well diffusion method; type: functional; conditions: for zone of inhibition at 1000 µg/mL: Staphylococcus aureus, 24 h, read-out: DIZ
Bacillus subtilis = experiment: Antibacterial activity against Bacillus subtilis at 1 mg/ml after 24 hrs by agar-well diffusion method; type: functional; conditions: for zone of inhibition at 1000 µg/mL: Bacillus subtilis, 24 h, read-out: DIZ
Trichophyton longifusum = experiment: Antifungal activity against Trichophyton longifusum after 7 days; type: functional; conditions: 168 h
Candida albicans = experiment: Antifungal activity against Candida albicans after 7 days; conditions: 168 h
Microsporum canis = experiment: Antifungal activity against Microsporum canis after 7 days; type: functional; conditions: 168 h
Fusarium solani = experiment: Antifungal activity against Fusarium solani after 7 days; type: functional; conditions: 168 h
Nakaseomyces glabratus = experiment: Antifungal activity against Candida glabrata after 7 days; type: functional; conditions: 168 h
Aspergillus flavus = experiment: Antifungal activity against Aspergillus flavus after 7 days; type: functional; conditions: 168 h

C/C(=N\c1n[nH]c(/N=C(\C)c2ccccn2)n1)c1ccccn1
LD50 (Artemia salina): > 3.341 ×10⁻⁴ M/ml
Activity (Escherichia coli): 58%
zone of inhibition at 1000 µg/mL (Escherichia coli): 17 mm
Activity (Shigella flexneri): 39%
zone of inhibition at 1000 µg/mL (Shigella flexneri): 12 mm
Activity (Pseudomonas aeruginosa): 58%
zone of inhibition at 1000 µg/mL (Pseudomonas aeruginosa): 18 mm
Activity (Salmonella enterica): 58%
zone of inhibition at 1000 µg/mL (Salmonella enterica): 16 mm
Activity (Staphylococcus aureus): 39%
zone of inhibition at 1000 µg/mL (Staphylococcus aureus): 11 mm
Activity (Bacillus subtilis): 39%
zone of inhibition at 1000 µg/mL (Bacillus subtilis): 13 mm

Clc1ccc(COC(Cn2ccnc2)c2ccc(Cl)cc2Cl)c(Cl)c1 (centres undefined) [MICONAZOLE]
MIC (Trichophyton longifusum): 70 µg/mL (≈ 168 µM)
MIC (Candida albicans): 111 µg/mL (≈ 266 µM)
MIC (Microsporum canis): 98.4 µg/mL (≈ 236 µM)
MIC (Fusarium solani): 73.2 µg/mL (≈ 176 µM)
MIC (Nakaseomyces glabratus): 111 µg/mL (≈ 266 µM)

C[C@@H](O)[C@H]1C(=O)N2C(C(=O)O)=C(SCCNC=N)C[C@H]12 [IMIPENEM ANHYDROUS]
zone of inhibition at 1000 µg/mL (Escherichia coli): 29 mm
zone of inhibition at 1000 µg/mL (Shigella flexneri): 31 mm
zone of inhibition at 1000 µg/mL (Pseudomonas aeruginosa): 30 mm
zone of inhibition at 1000 µg/mL (Salmonella enterica): 29 mm
zone of inhibition at 1000 µg/mL (Staphylococcus aureus): 26 mm
zone of inhibition at 1000 µg/mL (Bacillus subtilis): 28 mm

C(=N\c1n[nH]c(/N=C/c2ccc[nH]2)n1)/c1ccc[nH]1
LD50 (Artemia salina): > 6.897 ×10⁻⁴ M/ml
Activity (Escherichia coli): 55%
zone of inhibition at 1000 µg/mL (Escherichia coli): 17 mm
Activity (Shigella flexneri): 39%
zone of inhibition at 1000 µg/mL (Shigella flexneri): 12 mm
Activity (Pseudomonas aeruginosa): 39%
zone of inhibition at 1000 µg/mL (Pseudomonas aeruginosa): 14 mm
Activity (Salmonella enterica): 55%
zone of inhibition at 1000 µg/mL (Salmonella enterica): 16 mm
Activity (Staphylococcus aureus): 39%
zone of inhibition at 1000 µg/mL (Staphylococcus aureus): 11 mm
Activity (Bacillus subtilis): 39%
zone of inhibition at 1000 µg/mL (Bacillus subtilis): 13 mm

Oc1ccc2ccccc2c1/C=N/c1n[nH]c(/N=C/c2c(O)ccc3ccccc23)n1
LD50 (Artemia salina): > 7.614 ×10⁻⁴ M/ml
Activity (Escherichia coli): 35%
zone of inhibition at 1000 µg/mL (Escherichia coli): 11 mm
Activity (Shigella flexneri): 35%
zone of inhibition at 1000 µg/mL (Shigella flexneri): 13 mm
Activity (Pseudomonas aeruginosa): 35%
zone of inhibition at 1000 µg/mL (Pseudomonas aeruginosa): 11 mm
Activity (Salmonella enterica): 35%
zone of inhibition at 1000 µg/mL (Salmonella enterica): 14 mm
Activity (Staphylococcus aureus): 35%
zone of inhibition at 1000 µg/mL (Staphylococcus aureus): 12 mm
Activity (Bacillus subtilis): 57%
zone of inhibition at 1000 µg/mL (Bacillus subtilis): 16 mm

C(=N\c1n[nH]c(/N=C/c2ccccn2)n1)/c1ccccn1
LD50 (Artemia salina): > 4.128 ×10⁻⁴ M/ml
Activity (Escherichia coli): 43%
zone of inhibition at 1000 µg/mL (Escherichia coli): 15 mm
Activity (Shigella flexneri): 58%
zone of inhibition at 1000 µg/mL (Shigella flexneri): 18 mm
Activity (Pseudomonas aeruginosa): 43%
zone of inhibition at 1000 µg/mL (Pseudomonas aeruginosa): 13 mm
Activity (Salmonella enterica): 43%
zone of inhibition at 1000 µg/mL (Salmonella enterica): 11 mm
Activity (Staphylococcus aureus): 58%
zone of inhibition at 1000 µg/mL (Staphylococcus aureus): 16 mm
Activity (Bacillus subtilis): 43%
zone of inhibition at 1000 µg/mL (Bacillus subtilis): 12 mm

C[C@@H]1[C@H](O)[C@@H](C)/C=C/C=C/C=C/C=C/C=C/C=C/C=C/[C@H](O[C@@H]2O[C@H](C)[C@@H](O)[C@H](N)[C@@H]2O)C[C@@H]2O[C@](O)(C[C@@H](O)C[C@@H](O)[C@H](O)CC[C@@H](O)C[C@@H](O)CC(=O)O[C@H]1C)C[C@H](O)[C@H]2C(=O)O [AMPHOTERICIN B]
MIC (Aspergillus flavus): 20 µg/mL (≈ 21.6 µM)
